Data reported in US20120035241A1, “USE OF INHIBITORS OF PLAC8 ACTIVITY FOR THE MODULATION OF ADIPOGENESIS” (SANOFI-AVENTIS, priority 2008, published 2012).

How the values were obtained:
[1] = tested on: SCAT and VAT gene expression; test: cDNA microarray of visceral and subcutaneous adipose tissue of high fat diet fed mice treated with rimonabant; assay type: in vivo; details: C57BL/6J mice, 6 months HFD, then one month rimonabant 10 mg/kg/day; genes up-regulated by HFD (Plac8 and Rp9h down-regulated)
Description: C57BL/6J mice, which are obesity-prone (Collins et al. 2004), were fed for 6 months with a high fat diet (HFD).
RNA from 5 different mice per group was extracted from visceral and subcutaneous adipose tissues using peqGOLD Trifast™ (peqlab) and chloroform-isoamylalcool (24:1) extraction. RNA was precipitated with isopropanol and purified by passage over RNeasy columns (Qiagen). RNA quality was checked before and after amplification with a Bioanalyzer 2100 (Agilent). RNA was reverse transcribed and RNA was amplified with MessageAmp™ kit (Ambion). A Mouse Universal Reference (Clontech) was similarly amplified and both adipose tissue and reference RNAs were labeled by an indirect technique with Cy5 and Cy3 according to published protocols (De Fourmestraux et al., 2004). Labeled RNAs were hybridized to microarrays containing 17664 cDNAs prepared at the DNA Array Facility of the University of Lausanne. Scanning, image, and quality control analyses were performed as previously published (de Fourmestraux et al., J. Biol. Chem. 2004 279:50743-53). Data were expressed as log2 intensity ratios (Cy5/Cy3), normalized with a print tip locally weighted linear regression (Lowess) method and filtered based on spot quality and incomplete annotation. All analyses were performed with the R software for statistical computing available at the Comprehensive R Archive Network (cran.us.r-project.org/).

Plac8 = test: Retroviral transduction of 3T3-L1 cells with shRNA, Plac8 mRNA by RT-PCR; assay type: cell-based, mouse; details: 3T3-L1 cells infected 6 hours with retroviral vectors, day 0 prior differentiation, RT-PCR (FIG. 3B)
Procedure: 3T3-L1 cells were cultured in DMEM (Gibco) with 10% FBS (Gibco) at 5% CO2. After retroviral infection (see below), cells were allow to grow to confluence in either 100-mm or 60-mm dishes in DMEM with 10% FBS. Once confluence was reached, cells were exposed to differentiation medium containing dexamethasone (1 μM), insulin (5 μg/ml), and isobutylmethylxanthine ([…]) (DMI). After 2 days cells were maintained in medium containing insulin (5 μg/ml) until ready for harvest at 7 days.
Retroviruses were constructed in the RNAi-Ready pSIREN-RetroQ ZsGreen (pSIREN Clontech) or pMSCV puromycin plasmid (pMSCV, Clontech). Viral constructs were transfected using calcium-phosphate method described in Jordan, M., et al. (2004) into 293 HEK packaging cells along with constructs encoding gag-pol and the VSV-G protein. Supernatants were harvested after 48 h in presence of […] of Trichostatin A (Sigma) and either used immediately or snap frozen and stored at −80° C. for later use. Viral supernatants were added to the cells for 6 hours in the presence of polybrene (4 μg/ml) and diluted two times with fresh medium for the next 15 hours.
Total RNA was isolated from cultured cells using peqGOLD TriFast reagent according to the manufacturer's instructions (Axonlab). First strand cDNA was synthesized from 0.5 μg of total RNA using random primers and Superscript II (Invitrogen). […]

How did the “expression of 34 gene candidates regulated by HFD in SCAT and VAT” value [1] turn out when Cc1c(C(=O)NN2CCCCC2)nn(-c2ccc(Cl)cc2Cl)c1-c1ccc(Cl)cc1 [rimonabant] was run?
Its value is “normalized”.

B1: shLuc: negative control siRNA sequence against luciferase, SEQ ID NO. 8 (nucleic acid)
chain: GATCCGTGCGTTGCTAGTACCAATTCAAGAGATTGGTACTAGCAACGCACTTTTTTACGCGTG
modifications: listed as DNA, chemistry not fully specified
For B1, which “knockdown for Plac8 (mRNA)” value (Plac8) is on record?
Its value is “no inhibition”.
